According to US20240270821A1, “GIP/GLP1/GCG TRI-RECEPTOR AGONISTS AND USES THEREOF” (priority 2023, published 2024):
Where two headings read alike, the source gives them in different places. Starred links: 1 amine or outer side, 2 acyl side, 3 side chain; linkers in the order of their positions; H or OH if unused. Non-standard residues stand in square brackets, D forms with d. Residues, ends and D or L forms follow the SMILES beside them. Groups on a side chain read outwards from the residue. No end group written: not given here. *: point of attachment. C20 diacid = O=C(O)CCCCCCCCCCCCCCCCCCC(=O)*; C18 diacid = O=C(O)CCCCCCCCCCCCCCCCC(=O)*; αMePhe(2-F) = C[C@](N)(Cc1ccccc1F)C(=O)O; γGlu = O=C(O)[C@H](CCC(=O)[*:2])N[*:1]; αMe4Pal = C[C@](N)(Cc1ccncc1)C(=O)O; αMeY = C[C@](N)(Cc1ccc(O)cc1)C(=O)O; 4Pal = N[C@@H](Cc1ccncc1)C(=O)O; αMeL = CC(C)C[C@](C)(N)C(=O)O; αMeS = C[C@](N)(CO)C(=O)O; Orn = NCCC[C@H](N)C(=O)O; AEEA = NCCOCCOCC(=O)O; Aib = CC(C)(N)C(=O)O

What was measured:
Format in all cases: cell-based
[1] = molecular target: human GcgR (Homo sapiens, UniProt P47871); assay: Functional cAMP activity in the presence of 1% HSA; conditions: read-out: cAMP Rel EC50, hGcgR
Sequence of human GcgR (P47871 26-477): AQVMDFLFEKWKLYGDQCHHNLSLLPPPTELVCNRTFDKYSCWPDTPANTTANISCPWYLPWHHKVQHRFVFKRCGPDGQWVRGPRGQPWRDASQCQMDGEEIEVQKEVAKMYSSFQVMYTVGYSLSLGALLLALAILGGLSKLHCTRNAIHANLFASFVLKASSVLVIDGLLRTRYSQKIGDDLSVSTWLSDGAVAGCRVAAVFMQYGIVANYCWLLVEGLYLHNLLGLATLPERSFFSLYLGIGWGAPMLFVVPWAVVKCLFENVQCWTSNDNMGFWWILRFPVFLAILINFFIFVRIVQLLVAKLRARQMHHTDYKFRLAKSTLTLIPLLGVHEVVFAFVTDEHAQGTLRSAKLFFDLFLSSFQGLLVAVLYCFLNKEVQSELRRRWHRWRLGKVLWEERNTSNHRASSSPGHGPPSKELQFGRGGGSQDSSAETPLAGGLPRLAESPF

[2] = molecular target: T1, hGIPR (Homo sapiens, UniProt P48546); assay: Functional cAMP activity in the presence of 1% HSA; conditions: read-out: cAMP Rel EC50, hGIPR
T1 sequence (P48546 22-466): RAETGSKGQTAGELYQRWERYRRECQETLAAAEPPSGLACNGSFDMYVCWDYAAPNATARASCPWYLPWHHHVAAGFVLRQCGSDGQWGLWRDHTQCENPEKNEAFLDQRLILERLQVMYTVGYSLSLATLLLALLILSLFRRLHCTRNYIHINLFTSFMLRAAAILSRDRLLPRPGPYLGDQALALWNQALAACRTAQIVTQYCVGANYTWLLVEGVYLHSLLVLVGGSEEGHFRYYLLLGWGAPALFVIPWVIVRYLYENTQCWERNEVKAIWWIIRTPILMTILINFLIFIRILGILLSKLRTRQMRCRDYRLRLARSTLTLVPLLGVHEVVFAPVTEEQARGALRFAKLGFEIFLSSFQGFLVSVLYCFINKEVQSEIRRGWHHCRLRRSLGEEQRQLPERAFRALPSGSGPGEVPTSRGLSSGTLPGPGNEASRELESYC

[3] = molecular target: T2, hGLP-1R (Homo sapiens, UniProt P43220); assay: Functional cAMP activation in the presence of 0.1% casein (no HSA); conditions: read-out: Relative cAMP EC50, hGLP-1R;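 note: intracellular cAMP rise after 30 min at 37 °C read by HTRF, normalized between buffer only (0%) and maximal control ligand (100%), four-parameter variable-slope fit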
T2 sequence (P43220 24-463): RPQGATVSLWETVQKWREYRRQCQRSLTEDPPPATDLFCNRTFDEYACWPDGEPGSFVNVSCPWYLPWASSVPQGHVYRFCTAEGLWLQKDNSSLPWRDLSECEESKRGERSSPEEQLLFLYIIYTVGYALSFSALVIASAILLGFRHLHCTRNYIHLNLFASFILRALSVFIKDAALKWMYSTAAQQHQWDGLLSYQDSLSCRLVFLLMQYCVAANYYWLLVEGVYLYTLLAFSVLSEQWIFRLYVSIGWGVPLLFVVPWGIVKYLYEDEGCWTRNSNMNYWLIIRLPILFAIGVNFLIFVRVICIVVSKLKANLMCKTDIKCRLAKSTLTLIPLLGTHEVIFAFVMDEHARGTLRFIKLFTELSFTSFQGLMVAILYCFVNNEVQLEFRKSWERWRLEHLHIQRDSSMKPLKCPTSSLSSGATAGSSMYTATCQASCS

[4] = molecular target: T2, hGLP-1R; assay: Functional cAMP activity in the presence of 1% HSA; conditions: read-out: cAMP Rel EC50, hGLP-1R
[5] = molecular target: hGcgR (Homo sapiens, UniProt P47871); assay: Functional cAMP activation in the presence of 0.1% casein (no HSA); conditions: read-out: Relative cAMP EC50, hGcgR;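 note: intracellular cAMP rise after 30 min at 37 °C, read by HTRF against a cAMP standard curve, scaled from buffer only (0%) to maximal control ligand response (100%)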
Sequence of hGcgR (P47871 26-477): as the sequence (P47871 26-477) above

[6] = molecular target: T1, hGIPR; assay: as above; conditions: read-out: Relative cAMP EC50, hGIPR
[7] = in the presence of 0.1% casein (no HSA), geometric mean
[8] = 0.1% casein, no HSA, geometric mean
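Throughout, for Relative cAMP EC50, hGIPR: intracellular cAMP rise after 30 min at 37 °C read by HTRF against a standard curve, scaled between buffer alone (0%) and top control ligand concentration (100%), four-parameter fit.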

Molecule | EC50 [1] [nM] | EC50 [2] [nM] | EC50 [3] [nM] | EC50 [4] [nM] | EC50 [5] [nM] | EC50 [6] [nM] | EC50 ([1]; HEK-293 clonal cells expressing hGcgR, in the presence of 1% HSA, geometric mean of relative EC50) [nM] | EC50 ([2]; HEK-293 clonal cells expressing hGIPR, in the presence of 1% HSA, geometric mean of relative EC50) [nM] | EC50 [3, 7] [nM] | EC50 ([4]; HEK-293 clonal cells expressing hGLP-1R, in the presence of 1% HSA, geometric mean of relative EC50) [nM] | EC50 [5, 7] [nM] | EC50 [6, 7] [nM] | EC50 [3, 8] [nM] | EC50 [5, 8] [nM] | EC50 [6, 8] [nM]
CC[C@H](C)[C@H](NC(=O)[C@H](Cc1ccccc1)NC(=O)[C@H](C)NC(=O)C(C)(C)NC(=O)[C@H](CCC(N)=O)NC(=O)[C@H](C)NC(=O)[C@H](CCCCNC(=O)COCCOCCNC(=O)CC[C@H](NC(=O)CCCCCCCCCCCCCCCCC(=O)O)C(=O)O)NC(=O)[C@H](CCCCN)NC(=O)[C@H](CC(=O)O)NC(=O)[C@H](CC(C)C)NC(=O)[C@](C)(CC(C)C)NC(=O)[C@@H](NC(=O)[C@H](CO)NC(=O)[C@H](Cc1ccncc1)NC(=O)[C@H](CC(=O)O)NC(=O)[C@H](CO)NC(=O)[C@@H](NC(=O)[C@](C)(Cc1ccccc1F)NC(=O)[C@@H](NC(=O)CNC(=O)[C@H](CCC(N)=O)NC(=O)C(C)(C)NC(=O)[C@@H](N)Cc1ccc(O)cc1)[C@@H](C)O)[C@@H](C)O)[C@@H](C)CC)C(=O)N[C@@H](CCC(=O)O)C(=O)N[C@@H](Cc1ccc(O)cc1)C(=O)N[C@@H](CC(C)C)C(=O)N[C@@H](CCC(=O)O)C(=O)N[C@@H](CCC(=O)O)C(=O)NCC(=O)NCC(=O)N1CCC[C@H]1C(=O)N[C@@H](CO)C(=O)N[C@@H](CO)C(=O)NCC(=O)N[C@@H](C)C(=O)N1CCC[C@H]1C(=O)N[C@@H](CCC(=O)O)C(=O)N1CCC[C@H]1C(=O)N[C@@H](CO)C(N)=O [Example 443] (H-Y[Aib]QGT[αMePhe(2-F)]TSD[4Pal]SI[αMeL]LDKK([AEEA-γGlu-C18 diacid])AQ[Aib]AFIEYLEEGGPSSGAPEPS-NH2) | 265 | 1.57 | 0.572 | 34.3 | 6.09 | 0.0291 |  |  |  |  |  |  |  |  | 
H-Y[Aib]QGT[αMePhe(2-F)]TSDYSI[αMeL]LDKK([AEEA-AEEA-γGlu-C20 diacid])AA[Aib]AFIEYLIETGPSSGAPPPSEG-NH2 [Example 383] |  |  |  |  |  |  | 530 | 32.3 | 0.258 | 79.1 | 1.27 | 0.0406 |  |  | 
H-Y[Aib]QGTFTSD[4Pal]SK[αMeL]LDKK([AEEA-γGlu-C18 diacid])AQ[Aib]AFIEYLIE[Aib]GPSSGAPPPSGS-NH2 [Example 801] | 1200 | 18.1 |  | 133 |  |  |  |  | 0.938 |  | 5.51 | 0.147 |  |  | 
H-Y[Aib]QGT[αMePhe(2-F)]TSD[4Pal]SILLDKK([γGlu-γGlu-C18 diacid])AQ[Aib]AFIE[αMeY]LEEGGPSSGAPPPSGTGE-NH2 [Example 664] | 179 | 1.18 | 0.356 | 27.7 | 2.12 | 0.0159 |  |  |  |  |  |  |  |  | 
H-Y[Aib]QGTFTSD[4Pal]SQ[αMeL]LD[Orn]K([AEEA-γGlu-C18 diacid])AQ[αMe4Pal]AFIE[αMeY]LIEGGPSSGAPPPSGS-NH2 [Example 849] | 1160 | 36.6 |  | 111 |  |  |  |  | 0.661 |  | 6.66 | 0.306 |  |  | 
H-Y[Aib]QGTFTSD[4Pal]SQ[αMeL]LD[Orn]K([γGlu-γGlu-C18 diacid])AQ[αMe4Pal]AFIE[αMeY]LIA[Aib]GPSSGAPPPSGSEE-NH2 [Example 1107] | 864 | 5.29 |  | 59 |  |  |  |  | 0.51 |  | 5.66 | 0.0447 |  |  | 
H-Y[Aib]QGTFTSDFS[Orn][αMeL]LDKK([AEEA-γGlu-C18 diacid])AQ[Aib]AFIE[αMeY]LIEGGPSSGAPPPSGS-NH2 [Example 839] | 1110 | 21.9 |  | 60.6 |  |  |  |  | 0.469 |  | 5.05 | 0.221 |  |  | 
CC[C@H](C)[C@H](NC(=O)[C@H](Cc1ccccc1)NC(=O)[C@H](C)NC(=O)C(C)(C)NC(=O)[C@H](CCC(N)=O)NC(=O)[C@H](C)NC(=O)[C@H](CCCCNC(=O)COCCOCCNC(=O)CC[C@H](NC(=O)CCCCCCCCCCCCCCCCC(=O)O)C(=O)O)NC(=O)[C@H](CCCCN)NC(=O)[C@H](CC(=O)O)NC(=O)[C@H](CC(C)C)NC(=O)[C@](C)(CC(C)C)NC(=O)[C@@H](NC(=O)[C@H](CO)NC(=O)[C@H](Cc1ccc(O)cc1)NC(=O)[C@H](CC(=O)O)NC(=O)[C@H](CO)NC(=O)[C@@H](NC(=O)[C@](C)(Cc1ccccc1F)NC(=O)[C@@H](NC(=O)CNC(=O)[C@H](CCC(N)=O)NC(=O)C(C)(C)NC(=O)[C@@H](N)Cc1ccc(O)cc1)[C@@H](C)O)[C@@H](C)O)[C@@H](C)CC)C(=O)N[C@@H](CCC(=O)O)C(=O)N[C@@H](Cc1ccc(O)cc1)C(=O)N[C@@H](CC(C)C)C(=O)N[C@@H](CCC(=O)O)C(=O)N[C@@H](CCC(=O)O)C(=O)NCC(=O)NCC(=O)N1CCC[C@H]1C(=O)N[C@@H](CO)C(=O)N[C@@H](CO)C(=O)NCC(=O)N[C@@H](C)C(=O)N1CCC[C@H]1C(=O)N1CCC[C@H]1C(=O)N1CCC[C@H]1C(=O)N[C@@H](CCC(=O)O)C(N)=O [Example 400] (H-Y[Aib]QGT[αMePhe(2-F)]TSDYSI[αMeL]LDKK([AEEA-γGlu-C18 diacid])AQ[Aib]AFIEYLEEGGPSSGAPPPE-NH2) | 265 | 3.86 | 0.253 | 29.1 | 2.53 | 0.0158 |  |  |  |  |  |  |  |  | 
H-Y[Aib]QGTFTSDFS[Orn][αMeL]LDKK([AEEA-γGlu-C18 diacid])AQ[Aib]AFIEYLLE[Aib]GHSSGAPPPSGE-NH2 [Example 247] | 443 | 12.9 |  | 291 |  |  |  |  | 2.8 |  | 1.76 | 0.0794 |  |  | 
H-Y[Aib]QGT[αMePhe(2-F)]TSD[4Pal][αMeS]I[αMeL]LD[Orn]K([γGlu-γGlu-C18 diacid])AA[Aib]EFI[dE][αMeY]LIEGGPSSGAPPPSGGGE-NH2 [Example 747] | 169 | 0.651 | 0.229 | 20.3 | 1.71 | 0.00955 |  |  |  |  |  |  |  |  | 
H-Y[Aib]QGT[αMePhe(2-F)]TSD[4Pal][αMeS]I[αMeL]LD[Orn]K([AEEA-γGlu-C18 diacid])AQ[αMe4Pal]EFI[dE][αMeY]LIEGGPSSGAPPPEGE-NH2 [Example 1148] | 175 | 0.873 |  | 44.3 |  |  |  |  | 0.299 |  | 1.6 | 0.00801 |  |  | 
Y[Aib]QGT[αMePhe(2-F)]TSD[4Pal][αMeS]I[αMeL]LD[Orn]QAQ[αMe4Pal]EFI[dE][αMeY]LIEGGPSSGAPPPSGGGE-NH2 [Example 1234] | 11.7 | 0.011 |  | 1.15 |  |  |  |  |  |  |  |  | 1.17 | 11.6 | 0.0135
Y[Aib]QGT[αMePhe(2-F)]TSD[4Pal]SI[αMeL]LD[Orn]K([AEEA-AEEA-γGlu-C18 diacid])AQ[αMe4Pal]EFI[dE][αMeY]LLEGGPSSGAPPPSGE-NH2 [Example 613] | 1410 | 0.791 | 0.698 | 81.6 | 20.4 | 0.00925 |  |  |  |  |  |  |  |  | 
H-Y[Aib]QGTFTSD[4Pal]SQ[αMeL]LD[Orn]K([γGlu-γGlu-C18 diacid])AQ[αMe4Pal]AFIEYLIA[Aib]GPSSGAPPPSGSEE-NH2 [Example 1091] | 550 | 5.79 |  | 145 |  |  |  |  | 1.23 |  | 4.67 | 0.0592 |  |  | 
